Results: US20220112225A1, “ANANDAMIDE COMPOUNDS” (priority 2019, published 2022)

Columns and labels:
Assay type in all cases: in vivo
[1] = PO JVC rat PK study at 10 mg/kg; conditions: male Sprague Dawley rats
Protocol: Compound 3 was orally dosed at 10 mg/kg to a group of 3 individually housed male Sprague Dawley rats that were fasted overnight and fed 4 h post-dose, the rats were fitted with JVCs. Dosing was performed with 5 mL/kg dosing volumes with 5% DMSO 95% water used as a dosing vehicle. Serial blood (150 μL) samples were taken from each animal at each timepoint (0.25 h, 0.5 h, 1 h, 2 h, 4 h, 6 h, 8 h, and 24 h) into heparinised Eppendorf tubes (containing 5 μL heparin) on ice containing an equal quantity of water. Two 100 μL aliquots were then placed in duplicate 96 well plates on dry ice. Samples were stored in the freezer at −20° C. until bioanalysis.
(§1) Samples were defrosted and acetonitrile (containing internal standard) was used to precipitate the proteins. All the samples were mixed, centrifuged and the supernatants analysed by LC-MS-MS according to the following procedures: • 1. 20 μL plasma was transferred to a v-bottom 96-well plate. • 2. 80 μL acetonitrile (ACN) containing IS was added to each well. • 3. The plate was sealed and gently mixed for approximately 30 s. • 4. Plates were centrifuged for 10 min at 3500 rpm. • 5. 50 μL supernatant was transferred to a fresh v-bottom 96-well plate containing 100 μL MilliQ water.
(§2) Plates were thermo-sealed and stored at 4° C. until analysis. The resulting PK parameters are shown below in Table 1.

[2] = PO JVC rat terminal PK study at 20 mg/kg (tissue distribution); conditions: rat, 20 mg/kg PO; for Brain to Blood Ratio (corrected): corrected for 15 μL of blood per gram of brain tissue
Protocol: Compound 3 was orally dosed at 20 mg/kg to a group of nine, jugular vein cannulated, individually housed male Sprague Dawley rats that were fasted overnight and fed 4 h post-dose to assess its tissue distribution profile. Dosing was performed with 5 mL/kg dosing volumes with 5% DMSO, 95% water used as a dosing vehicle. Terminal blood samples (>230 μL) were taken from groups of 3 animals at each of 3 time-points post dose (1 h, 2 h, and 4 h) by cardiac puncture under CO2 into heparinised Eppendorf tubes (containing 5 μL heparin) on ice containing an equal quantity of water. Two 100 μL aliquots were then placed in duplicate 96 well plates on dry ice. Immediately after blood sampling, brain and eye pair samples were excised, weighed, rinsed, blotted, and snap frozen in liquid N2. Samples were stored in the freezer at −20° C. until bioanalysis.
Tissue samples were weighed and a volume of water 3 times the mass added to samples before homogenization. In the case of eyeballs the lens could not be homogenized, but all other tissues homogenized. The resulting data (tissue distribution parameters) are shown below in Table 2.

[3] = IV JVC rat PK study at 3 mg/kg; conditions: male Sprague Dawley rats, 3 mg/kg IV
Protocol: Compound 3 was intravenously dosed at 3 mg/kg into a group of 3 individually housed, normally fed male Sprague Dawley rats that had been fitted with jugular vein catheters (JVCs). Dosing was performed with 2 mL/kg dosing volumes with 5% DMSO 95% water used as a dosing vehicle. Serial blood samples (150 μL) were taken from each animal at each time point post dose (0.08 h, 0.25 h, 0.5 h, 1 h, 2 h, 4 h, 8 h, and 24 h) into heparinised Eppendorf tubes (containing 5 μL heparin) on ice containing an equal quantity of water. Two 100 μL aliquots were then placed in duplicate 96 well plates on dry ice. Samples were stored in the freezer at −20° C. until bioanalysis.
as §1, §2

“2-(5Z,8Z,11Z,14Z)-icosa-5,8,11,14-tetraenamidoethyl (trimethylammonio) ethylphosphate [Compound 3]” showed an AUC0-inf ([1]; 10 mg/kg PO) of 2426.6 ng·h/mL, an AUC0-t ([1]; 10 mg/kg PO) of 2348.5 ng·h/mL and a Cmax ([1]; 10 mg/kg PO) of 372 ng/mL. The Tmax ([1]; 10 mg/kg PO) was 2.5 h, the Bioavailability ([1]; 10 mg/kg PO vs 3 mg/kg IV) was 28 % F and the “Brain to Blood Ratio (corrected)” value ([2]; 1 h) was 0.25. For the same substance, the Blood ([2]; 1 h post dose) was 108.4 ng/mL, the Brain ([2]; 1 h post dose) was 28.3 ng/g and the Eye ([2]; 1 h post dose) was 1035.4 ng/g. For the same substance, the “Brain to Blood Ratio (corrected)” value ([2]; 2 h) was 1.69, the Blood ([2]; 2 h post dose) was 16.7 ng/mL and the Brain ([2]; 2 h post dose) was 28.5 ng/g. For the same substance, the Eye ([2]; 2 h post dose) was 105.0 ng/g, the “Brain to Blood Ratio (corrected)” value ([2]; 4 h) was 2.69 and the Blood ([2]; 4 h post dose) was 12.8 ng/mL. It also gave a Brain ([2]; 4 h post dose) of 34.6 ng/g, an Eye ([2]; 4 h post dose) of 104.4 ng/g and an AUC0-inf [3] of 2561.0 ng·h/mL. For the same substance, the AUC0-t [3] was 2462.2 ng·h/mL, the CI [3] was 31 mL/min/kg and the Vdss [3] was 6.3 L/kg. It also gave a t1/2 [3] of 7.4 h.
